# Reference: PMC7366380, “Discovery of a Potent and Selective Covalent Inhibitor and Activity-Based Probe for the Deubiquitylating Enzyme UCHL1, with Antifibrotic Activity” (Journal of the American Chemical Society, 2020)
# Where “and” joins values, the source holds several entries; their conditions need not be identical. Identical values can stand only once.
# How the values were obtained:
# UCHL3 = target: T1, UCHL3 (Homo sapiens, UniProt P15374); experiment: Quantitative chemical proteomic profiling of ABP 2 in HEK293 cells: UCHL3; settings: for Log2 reporter intensity values (Log2FC, DMSO substract): UCHL3, listed as ABP 2
# T1 sequence (P15374 1-230): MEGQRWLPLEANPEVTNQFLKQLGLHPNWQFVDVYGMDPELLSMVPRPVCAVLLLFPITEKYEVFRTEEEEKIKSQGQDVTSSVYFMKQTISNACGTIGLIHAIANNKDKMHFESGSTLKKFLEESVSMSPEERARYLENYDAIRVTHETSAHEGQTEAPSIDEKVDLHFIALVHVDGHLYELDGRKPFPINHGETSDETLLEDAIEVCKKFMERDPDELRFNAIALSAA
# [1] = target: T2, DUBs and other proteins in HEK293 cells (Homo sapiens, UniProt P51665); experiment: Quantitative chemical proteomic profiling of ABP 2 in HEK293 cells: other DUBs and proteins across the proteome; settings: PSMD7, listed as ABP 2
# T2 sequence (P51665 1-324): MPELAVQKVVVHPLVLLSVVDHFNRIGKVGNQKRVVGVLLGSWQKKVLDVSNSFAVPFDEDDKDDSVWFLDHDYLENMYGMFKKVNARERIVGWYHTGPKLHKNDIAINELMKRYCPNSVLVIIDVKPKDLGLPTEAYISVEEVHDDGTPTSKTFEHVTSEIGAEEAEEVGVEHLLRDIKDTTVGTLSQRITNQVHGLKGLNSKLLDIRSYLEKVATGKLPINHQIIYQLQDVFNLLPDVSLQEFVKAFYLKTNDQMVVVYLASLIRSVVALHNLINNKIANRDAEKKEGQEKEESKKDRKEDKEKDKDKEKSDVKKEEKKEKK
# [2] = target: DUBs and other proteins in HEK293 cells (Homo sapiens, UniProt Q92905); experiment: as above; settings: COPS5, listed as ABP 2
# [3] = system: HEK293 cells whole proteome; experiment: Whole proteome analysis (no enrichment) of HEK293 cells treated with ABP 2, TMT; type: cell-based, human
# UCHL1 = target: T3, UCHL1 (Homo sapiens, UniProt P09936); experiment: ABP 2 labeling in HEK293 cells, AzTB ligation, in-gel fluorescence; settings: HEK293, time course
# T3 sequence (P09936 1-223): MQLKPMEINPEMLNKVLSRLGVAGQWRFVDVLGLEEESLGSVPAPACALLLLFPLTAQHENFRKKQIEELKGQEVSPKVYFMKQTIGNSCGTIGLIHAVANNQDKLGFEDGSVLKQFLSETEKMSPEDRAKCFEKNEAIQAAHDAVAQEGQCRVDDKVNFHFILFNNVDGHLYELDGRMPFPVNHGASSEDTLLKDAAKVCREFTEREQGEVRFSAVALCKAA
# PSMD14 = PSMD14 (Homo sapiens, UniProt O00487); experiment: Quantitative chemical proteomic profiling of ABP 2 in HEK293 cells: PSMD14; settings: for Log2 reporter intensity values (Log2FC, DMSO substract): PSMD14, listed as ABP 2
# [4] = target: fibroblast growth factor receptor 2 (FGFR2) (Homo sapiens, UniProt P21802); experiment: Quantitative chemical proteomic profiling of ABP 2 in HEK293 cells: FGFR2; settings: HEK293, 20 nM
# endogenous UCHL1 = target: T4, endogenous UCHL1 (Homo sapiens, UniProt P09936); experiment: ABP 2 target engagement in EA.hy926 and A549 cells (in-gel fluorescence, immunoblot); type: cell-based; settings: 3 h
# T4 construct: endogenous in cells; host or cells: EA.hy926 and A549
# From the text: Figure S13. ABP 2 target engagement in A549 and EA.hy926 cells. […]
# labeled proteins ligated to AzTB capture reagent. (a) Labeled proteins were separated by SDS-PAGE and visualised by in-gel fluorescence. (b) Labeled proteins were enriched by NeutrAvidin magnetic beads. Total lysate (TL), supernatant (SN) an d pulldown (PD) samples […]
# Preparation of UCHL1 overexpression cell lysates
# After cell lysis and CuAAC […]
# relative to the sample volume.
# SDS-PAGE and in-gel fluorescence imaging
# The protein samples were separated
# Biotin affinity enrichment for immunoblot analysis […]
# re-suspended as described previously.
# Proteins were separated by SDS-
# Sample preparation for MS-based proteomic analysis
# [5] = system: FLAG-UCHL1 (WT, C90A, C90S); settings: HeLa cells overexpressing FLAG-UCHL1, 1 h
# FGFR2 = FGFR2 (Homo sapiens, UniProt P21802); experiment: ABP 2 labeling in HEK293 cells, pulldown and FGFR2 immunoblotting; settings: HEK293, any concentration up to 2 μM
# [6] = 200 nM, 180 min, replicates A,C
# [7] = whole proteome, no enrichment, HEK293, 0.02 μM vs DMSO, 1 h
# [8] = whole proteome, no enrichment, HEK293, 0.2 μM vs DMSO, 1 h
# [9] = whole proteome, no enrichment, HEK293, 2 μM vs DMSO, 1 h
# Chain of DUBs and other proteins in HEK293 cells (Homo sapiens, UniProt Q92905) (Q92905 whole entry): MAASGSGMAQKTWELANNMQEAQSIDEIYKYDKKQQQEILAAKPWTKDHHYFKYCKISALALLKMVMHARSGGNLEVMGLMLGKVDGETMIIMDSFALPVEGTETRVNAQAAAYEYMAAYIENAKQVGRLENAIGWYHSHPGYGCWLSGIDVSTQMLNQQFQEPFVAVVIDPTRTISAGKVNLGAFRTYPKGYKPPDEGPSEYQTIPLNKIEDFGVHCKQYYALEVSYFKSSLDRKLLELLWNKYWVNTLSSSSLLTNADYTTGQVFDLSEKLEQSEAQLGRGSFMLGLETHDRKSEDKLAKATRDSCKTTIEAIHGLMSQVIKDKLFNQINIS
# Chain of FGFR2 (P21802 22-821): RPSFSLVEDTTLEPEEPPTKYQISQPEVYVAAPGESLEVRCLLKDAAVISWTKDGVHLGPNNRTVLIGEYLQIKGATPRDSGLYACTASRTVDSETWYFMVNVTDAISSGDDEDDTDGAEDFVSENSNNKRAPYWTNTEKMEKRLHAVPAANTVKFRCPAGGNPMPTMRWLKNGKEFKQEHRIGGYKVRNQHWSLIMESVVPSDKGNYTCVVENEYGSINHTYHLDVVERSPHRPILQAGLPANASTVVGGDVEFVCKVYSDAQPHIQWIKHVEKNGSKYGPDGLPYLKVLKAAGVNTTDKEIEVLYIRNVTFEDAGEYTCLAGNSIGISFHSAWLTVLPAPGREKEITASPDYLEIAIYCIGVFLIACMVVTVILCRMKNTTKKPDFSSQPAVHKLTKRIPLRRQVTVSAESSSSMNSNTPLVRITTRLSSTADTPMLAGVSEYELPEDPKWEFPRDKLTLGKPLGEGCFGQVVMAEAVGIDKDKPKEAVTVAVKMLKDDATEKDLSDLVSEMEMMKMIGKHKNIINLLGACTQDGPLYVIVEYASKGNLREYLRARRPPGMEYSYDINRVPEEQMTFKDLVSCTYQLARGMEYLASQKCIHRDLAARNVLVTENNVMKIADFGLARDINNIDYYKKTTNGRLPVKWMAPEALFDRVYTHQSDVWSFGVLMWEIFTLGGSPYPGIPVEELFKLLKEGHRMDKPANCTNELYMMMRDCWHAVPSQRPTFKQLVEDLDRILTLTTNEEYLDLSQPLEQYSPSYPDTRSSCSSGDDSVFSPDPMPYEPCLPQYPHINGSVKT
# Chain of fibroblast growth factor receptor 2 (FGFR2) (P21802 22-821): as above
smiles,measurement,setting,value
C#Cc1cnc2[nH]cc(-c3cccc4c3CCN4C(=O)[C@@H]3CCCN3C#N)c2c1 [Compound 2],UCHL3 enrichment (chemical proteomics),"UCHL3; HEK293, higher concentrations",marginal enrichment
same,"Log2 reporter intensity values (Log2FC, DMSO substract)","UCHL3; 2 nM, 60 min, replicates A-C",0.05364 and -0.07312 and 0.4093
same,"Log2 reporter intensity values (Log2FC, DMSO substract)","UCHL3; 20 nM, 10 min, replicates B,C",0.1568 and 0.3164
same,"Log2 reporter intensity values (Log2FC, DMSO substract)","UCHL3; 20 nM, 60 min, replicates A-C",0.5413 and 1.009 and 0.8836
same,"Log2 reporter intensity values (Log2FC, DMSO substract)","UCHL3; 20 nM, 180 min, replicates A-C",1.082 and 1.256 and 0.9512
same,"Log2 reporter intensity values (Log2FC, DMSO substract)","UCHL3; 200 nM, 10 min, replicates B,C",0.8647 and 0.7273
same,"Log2 reporter intensity values (Log2FC, DMSO substract)","UCHL3; 200 nM, 60 min, replicates A-C",1.566 and 2.128 and 1.659
same,"Log2 reporter intensity values (Log2FC, DMSO substract)",UCHL3; [6],2.355 and 2.225
same,"Log2 reporter intensity values (Log2FC, DMSO substract)","[1]; 2 nM, 60 min, replicates A-C",-0.04989 and -0.02897 and -0.2015
same,"Log2 reporter intensity values (Log2FC, DMSO substract)","[1]; 20 nM, 10 min, replicates B,C",-0.09409 and -0.09867
same,"Log2 reporter intensity values (Log2FC, DMSO substract)","[1]; 20 nM, 60 min, replicates A-C",0.07866 and 0.1721 and 0.02873
same,"Log2 reporter intensity values (Log2FC, DMSO substract)","[1]; 20 nM, 180 min, replicates A-C",0.04655 and 0.01609 and -0.03959
same,"Log2 reporter intensity values (Log2FC, DMSO substract)","[1]; 200 nM, 10 min, replicates B,C",0.1092 and 0.06216
same,"Log2 reporter intensity values (Log2FC, DMSO substract)","[1]; 200 nM, 60 min, replicates A-C",-0.1489 and -0.1748
same,"Log2 reporter intensity values (Log2FC, DMSO substract)",[1]; [6],-0.06266 and -0.01801
same,"Log2 reporter intensity values (Log2FC, DMSO substract)","[2]; 2 nM, 60 min, replicates A-C",-0.07206 and -0.06602 and 0.07642
same,"Log2 reporter intensity values (Log2FC, DMSO substract)","[2]; 20 nM, 10 min, replicates B,C",-0.04991 and -0.07182
same,"Log2 reporter intensity values (Log2FC, DMSO substract)","[2]; 20 nM, 60 min, replicates A-C",-0.1096 and -0.2324 and -0.02748
same,"Log2 reporter intensity values (Log2FC, DMSO substract)","[2]; 20 nM, 180 min, replicates A-C",-0.1203 and -0.07618 and -0.1432
same,"Log2 reporter intensity values (Log2FC, DMSO substract)","[2]; 200 nM, 10 min, replicates B,C",-0.09582 and 0.125
same,"Log2 reporter intensity values (Log2FC, DMSO substract)","[2]; 200 nM, 60 min, replicates A-C",0.01523 and 0.2396 and 0.003556
same,"Log2 reporter intensity values (Log2FC, DMSO substract)",[2]; [6],0.05752 and -0.04833
same,abundance change in whole proteome analysis,"[3]; HEK293, 20, 200 or 2000 nM, 60 min",No significant abundance change
same,"Log2 t-test Difference, AAAS, ABP 2 -0.02 μM",[3]; [7],0.04017
same,"Log2 t-test Difference, AACS, ABP 2 -0.02 μM",[3]; [7],-0.01983
same,"Log2 t-test Difference, AAGAB, ABP 2 -0.02 μM",[3]; [7],0.05728
same,"Log2 t-test Difference, AAMP, ABP 2 -0.02 μM",[3]; [7],-0.03986
same,"Log2 t-test Difference, AAAS, ABP 2 -0.2 μM",[3]; [8],-0.001777
same,"Log2 t-test Difference, AACS, ABP 2 -0.2 μM",[3]; [8],0.03866
same,"Log2 t-test Difference, AAGAB, ABP 2 -0.2 μM",[3]; [8],0.002598
same,"Log2 t-test Difference, AAMP, ABP 2 -0.2 μM",[3]; [8],0.04194
same,"Log2 t-test Difference, AAAS, ABP 2 -2 μM",[3]; [9],0.07218
same,"Log2 t-test Difference, AACS, ABP 2 -2 μM",[3]; [9],0.09255
same,"Log2 t-test Difference, AAGAB, ABP 2 -2 μM",[3]; [9],0.1494
same,"Log2 t-test Difference, AAMP, ABP 2 -2 μM",[3]; [9],-0.01217
same,time to maximal labeling,UCHL1,≤ 60 min
same,"Log2 t-test Difference, PSMD14, 2 nM","PSMD14; HEK293, 2 nM vs DMSO, 1 h, enrichment, TMT, n=3",0.06988
same,"Log2 t-test Difference, PSMD14, 20 nM","PSMD14; HEK293, 20 nM vs DMSO, 1 h, enrichment, TMT, n=3",-0.004272
same,"Log2 t-test Difference, PSMD14, 200 nM","PSMD14; HEK293, 200 nM vs DMSO, 1 h, enrichment, TMT, n=3",0.1265
same,"Log2 reporter intensity values (Log2FC, DMSO substract)","PSMD14; 2 nM, 60 min, replicates A-C",0.2334 and 0.06155 and -0.08529
same,"Log2 reporter intensity values (Log2FC, DMSO substract)","PSMD14; 20 nM, 10 min, replicates B,C",-0.01968 and 0.08775
same,"Log2 reporter intensity values (Log2FC, DMSO substract)","PSMD14; 20 nM, 60 min, replicates A-C",-0.03468 and 0.06905 and -0.04719
same,"Log2 reporter intensity values (Log2FC, DMSO substract)","PSMD14; 20 nM, 180 min, replicates A-C",0.05966 and 0.0953 and 0.01379
same,"Log2 reporter intensity values (Log2FC, DMSO substract)","PSMD14; 200 nM, 10 min, replicates B,C",0.3381 and 0.09077
same,"Log2 reporter intensity values (Log2FC, DMSO substract)","PSMD14; 200 nM, 60 min, replicates A-C",0.2255 and 0.1628 and -0.008927
same,"Log2 reporter intensity values (Log2FC, DMSO substract)",PSMD14; [6],0.02414 and 0.2255
same,FGFR2 enrichment (chemical proteomics),[4],significantly enriched
same,profiling of endogenous UCHL1 activity in other cell types,endogenous UCHL1,excellent selectivity
same,labeling of WT versus C90A/C90S UCHL1,[5],only WT UCHL1 is labeled
same,FGFR2 enrichment by pulldown and immunoblotting,FGFR2,barely detectable
